Data on six compounds can be found in patent publication US9315508B2, “Treating diabetes with dipeptidyl peptidase-IV inhibitors” (Merck Sharp & Dohme Corp., priority 2012, dated 2016).

The structures appear in SMILES notation. pIC50: −log10 of the molar value.

Experiment [1] has as its target dipeptidyl peptidase-IV enzyme (DPP-4) (Homo sapiens (Human), UniProt P27487). Kind of experiment: continuous fluorometric DPP-4 inhibition assay with substrate Gly-Pro-AMC. Format: biochemical. The following applies: soluble human DPP-4, Gly-Pro-AMC substrate. How it is done: Inhibition constants are determined as follows. A continuous fluorometric assay is employed with the substrate Gly-Pro-AMC, which is cleaved by DPP-4 to release the fluorescent AMC leaving group. The kinetic parameters that describe this reaction are as follows: Km=50 μM; kcat=75 s^−1; kcat/Km=1.5×10^6 M^−1s^−1. A typical reaction contains approximately […], 50 μM Gly-Pro-AMC, and buffer (100 mM HEPES, pH 7.5, 0.1 mg/ml BSA) in a total reaction volume of 100 μL. Liberation of AMC is monitored continuously in a 96-well plate fluorometer using an excitation wavelength of 360 nm and an emission wavelength of 460 nm. Under these conditions, approximately 0.8 μM AMC is produced in 30 minutes at 25 degrees C. The enzyme used in these studies was soluble (transmembrane domain and cytoplasmic extension excluded) human protein produced in a baculovirus expression system (Bac-To-Bac, Gibco BRL). […] To measure the dissociation constants for compounds, solutions of inhibitor in DMSO were added to reactions containing enzyme and substrate (final DMSO concentration is 1%). All experiments were conducted at room temperature using the standard reaction conditions described above. To determine the dissociation constants (Ki), reaction rates were fit by non-linear regression to the Michaelis-Menton equation for competitive inhibition. The errors in reproducing the dissociation constants are typically less than two-fold.

A further experiment relates to rats. The following applies: doubled from day 7 to day 14; cited from earlier work.
A further experiment deals with mouse. The following applies: mouse model of cyclophosphamide-induced neutropenia; cited from earlier work.
The next experiment concerns the target DPP-4 (Homo sapiens (Human), UniProt P27487). The following applies: cited from earlier work.

Sequence of dipeptidyl peptidase-IV enzyme (DPP-4) (P27487 29-766): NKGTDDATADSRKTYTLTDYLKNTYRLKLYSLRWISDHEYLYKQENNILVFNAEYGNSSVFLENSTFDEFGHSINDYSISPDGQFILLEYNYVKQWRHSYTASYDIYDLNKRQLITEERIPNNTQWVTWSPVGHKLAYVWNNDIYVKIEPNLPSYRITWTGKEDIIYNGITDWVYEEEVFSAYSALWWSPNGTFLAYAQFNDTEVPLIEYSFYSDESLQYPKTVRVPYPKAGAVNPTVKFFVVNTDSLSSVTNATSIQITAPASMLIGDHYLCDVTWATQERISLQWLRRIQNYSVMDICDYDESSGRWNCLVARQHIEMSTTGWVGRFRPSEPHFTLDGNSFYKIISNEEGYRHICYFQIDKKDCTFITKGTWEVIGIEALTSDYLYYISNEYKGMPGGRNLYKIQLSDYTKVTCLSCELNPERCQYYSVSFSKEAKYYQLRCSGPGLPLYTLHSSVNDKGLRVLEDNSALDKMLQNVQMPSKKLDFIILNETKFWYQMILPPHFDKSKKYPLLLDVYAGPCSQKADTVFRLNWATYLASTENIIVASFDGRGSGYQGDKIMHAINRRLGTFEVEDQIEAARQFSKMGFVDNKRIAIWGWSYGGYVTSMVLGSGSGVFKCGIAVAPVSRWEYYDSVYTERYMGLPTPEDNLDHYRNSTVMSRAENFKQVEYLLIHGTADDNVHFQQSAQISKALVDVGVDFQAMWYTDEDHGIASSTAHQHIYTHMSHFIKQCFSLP
Sequence of DPP-4 (P27487 39-766, species assumed): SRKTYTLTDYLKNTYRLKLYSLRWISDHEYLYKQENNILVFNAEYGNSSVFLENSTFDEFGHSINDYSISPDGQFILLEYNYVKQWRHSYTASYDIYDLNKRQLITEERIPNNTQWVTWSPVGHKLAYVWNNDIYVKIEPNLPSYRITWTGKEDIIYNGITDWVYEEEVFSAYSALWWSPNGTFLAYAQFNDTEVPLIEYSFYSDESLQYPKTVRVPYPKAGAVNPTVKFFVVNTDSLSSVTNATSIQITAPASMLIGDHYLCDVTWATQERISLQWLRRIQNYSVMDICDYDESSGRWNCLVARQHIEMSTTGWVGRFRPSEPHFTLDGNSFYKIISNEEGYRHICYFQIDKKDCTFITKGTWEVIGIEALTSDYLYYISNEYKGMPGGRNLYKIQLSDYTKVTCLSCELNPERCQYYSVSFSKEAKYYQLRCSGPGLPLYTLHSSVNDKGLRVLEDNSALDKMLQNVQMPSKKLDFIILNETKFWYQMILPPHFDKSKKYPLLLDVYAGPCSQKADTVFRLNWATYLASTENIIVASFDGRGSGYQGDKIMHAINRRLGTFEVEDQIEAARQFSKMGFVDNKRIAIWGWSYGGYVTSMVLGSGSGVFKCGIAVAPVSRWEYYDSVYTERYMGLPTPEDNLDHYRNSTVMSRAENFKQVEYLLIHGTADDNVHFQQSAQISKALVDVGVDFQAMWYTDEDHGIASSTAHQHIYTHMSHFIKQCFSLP

Usually pIC50 stands for the negative decadic logarithm of the IC50, by convention in mol/L. Read a high pIC50 as a small IC50. Turning to `N[C@H]1CC(N2Cc3c[nH]nc3C2)c2ccccc2[C@@H]1c1cc(F)ccc1F` (stereo partly drawn) [Example 1], the negative logarithm of the IC50 (pIC50) in experiment [1] was under 6.00.

Take `CS(=O)(=O)n1cc2c(n1)CN([C@@H]1C[C@H](N)[C@@H](c3cc(F)ccc3F)[C@H]3CC13)C2` (stereo partly drawn) [Example 2]: in experiment [1], the pIC50 was 8.05. Regarding `CS(=O)(=O)n1cc2c(n1)CN([C@@H]1C[C@H](N)[C@@H](c3cc(F)ccc3F)[C@@H]3C[C@@H]31)C2` [Example 3], the negative-log IC50 (pIC50) in experiment [1] was 8.27. As for `CC(C)N1CCC(c2ccccc2)(c2ccccc2)CC1` [Prodipine, Pro-Pro-diphenyl-phosphonate], in the experiment on rats, the cardiac allograft survival is reported as 14 day. As for `CC(C)[C@H](N)C(=O)N1CCC[C@H]1B(O)O` [Val-Boro-Pro], in the experiment on mouse, the hematopoiesis result is listed as “stimulated hematopoiesis”. As to `CC[C@H](C)[C@H](N)C(=O)N1CCC[C@H]1C(=O)N[C@H](C(=O)O)[C@@H](C)CC` [diprotin A], at DPP-4, the “degradation of GRF in plasma to GRF[3-44]” value is given as “prevented”.
